# Values of other authors, collected in patent US20100068203A1, “17-Oxymacbecin Derivatives and Their Use in the Treatment of Cancer and/or B-Cell Malignancies” (priority 2006, published 2010).
# Assays:
# bacteria and fungi = conditions: in vitro
# [1] = target: terminal deoxynucleotidyl transferase (Homo sapiens, UniProt P04053)
# SKBr3 = conditions: compared with geldanamycin and 17-AAG
# Hsp90 = Hsp90 (Homo sapiens, UniProt P07900)
# Chain of terminal deoxynucleotidyl transferase (P04053 whole entry, species assumed): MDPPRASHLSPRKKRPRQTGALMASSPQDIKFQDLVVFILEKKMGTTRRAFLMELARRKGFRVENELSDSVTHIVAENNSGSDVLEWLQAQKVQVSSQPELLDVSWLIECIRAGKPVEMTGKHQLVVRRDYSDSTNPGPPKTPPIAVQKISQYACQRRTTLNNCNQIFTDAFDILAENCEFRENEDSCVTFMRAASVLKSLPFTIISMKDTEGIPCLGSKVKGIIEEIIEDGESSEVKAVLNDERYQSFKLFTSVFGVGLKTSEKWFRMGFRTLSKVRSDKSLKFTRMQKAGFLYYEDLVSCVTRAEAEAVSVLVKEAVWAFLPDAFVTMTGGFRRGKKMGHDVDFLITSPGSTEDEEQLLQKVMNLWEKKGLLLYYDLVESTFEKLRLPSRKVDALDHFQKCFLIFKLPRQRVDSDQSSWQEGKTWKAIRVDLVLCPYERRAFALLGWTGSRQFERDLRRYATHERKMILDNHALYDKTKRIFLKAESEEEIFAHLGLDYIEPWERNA
smiles,measurement,setting,value
COC1=C2C[C@@H](C)C[C@H](OC)[C@H](O)[C@@H](C)/C=C(\C)[C@H](OC(N)=O)[C@@H](OC)/C=C\C=C(/C)C(=O)NC(=CC1=O)C2=O [geldanamycin],activity against bacteria and fungi,bacteria and fungi,weak activity
same,activity in vitro against protozoa,protozoa,strong activity
CO[C@H]1[C@@H](OC)C[C@H](C)[C@@H](OC)C2=CC(=O)C=C(NC(=O)/C(C)=C/C=C\[C@H](C)[C@@H](OC(N)=O)/C(C)=C/[C@@H]1C)C2=O [macbecin],Reverse transcriptase activity inhibition,Reverse transcriptase,not inhibited
same,terminal deoxynucleotidyl transferase activity inhibition,[1],not inhibited
CO[C@H]1C[C@H](C)Cc2cc(O)cc(c2)NC(=O)/C=C/CC[C@H](OC)[C@@H](OC(N)=O)/C(C)=C/[C@H](C)[C@H]1O [KOSN1559],IC50 measurement using SKBr3,SKBr3,not reflected in an improvement
same,"binding affinity to Hsp90, greater than 17-AAG",Hsp90; relative to 17-AAG,8 fold
same,"binding affinity to Hsp90, greater than geldanamycin",Hsp90; relative to geldanamycin,4 fold
